Data taken from patent US5010073A, “Use of liposomes as carriers for metalloporphyrins” (The Rockefeller University, priority 1990, dated 1991).
Where two headings read alike, the source gives them in different places.

Assays:
plasma bilirubin levels = assay: Lowering plasma bilirubin levels in newborn animals; format: in vivo
bilirubin levels [1] = conditions: cited from earlier work
[2] = cited from earlier work
heme oxygenase [3] = conditions: rats, cited from earlier work
bilirubin levels [4] = conditions: NEONATAL MONKEY; dose 24-185 umoles/kg; cited from earlier work
heme oxygenase [5] = assay: Inhibition of splenic and hepatic heme oxygenase after injection; format: in vivo, rat; conditions: single animal; for Heme Oxygenase activity Liver: saline 2.3 ± 0.6; for Heme Oxygenase activity Spleen: saline 9.0 ± 2.4
Description: Liver were perfused in situ with ice cold 0.9% NaCl and subsequently homogenized in 3 volumes of 0.1 M potassium phosphate buffer, pH 7.4, containing 0.25 M sucrose. […] Splenic microsomes were prepared in an identical manner. The cytosolic fraction obtained from the liver of control (saline-injected) animals served as a source of bilirubin reductase for subsequent analysis of heme oxygenase activity. Assays for heme oxygenase and metalloporphyrin concentration were performed on fresh microsomes whenever possible. Otherwise, microsomal fractions were kept at liquid nitrogen temperatures until the time of assay.
The activity of heme oxygenase in tissues was determined as described by Drummond and Kappas, supra. […] Standard settings for the two metalloporphyrins examined were: […]
The rats were sacrificed at varying times after injection for measurements of hepatic and splenic heme oxygenase activity.

bilirubin levels [6] = conditions: cited from earlier work; remark: listed apart in the source
heme oxygenase [7] = assay: Efficacy as heme oxygenase inhibitors (statements in words); conditions: at the same concentrations as SnPP
[8] = Toxicity of chromium porphyrin preparations; format: in vivo; conditions: aqueous: isotonic aqueous media at the same level as SnPP; liposomal: at effective dosage levels

C=CC1=C(C)c2cc3[n-]c(cc4[n-]c(cc5nc(cc1n2)C(C)=C5C=C)c(C)c4CCC(=O)[O-])c(CCC(=O)[O-])c3C.[H+].[H+].[Mn+2] [MnPP, manganese protoporphyrin]
lowering plasma bilirubin levels (plasma bilirubin levels): ineffective

C=Cc1c2[n-]c(c1C)/C=c1\[n-]/c(c(C)c1C=C)=C\c1[n-]c(c(CCC(=O)O)c1C)/C=c1\[n-]c(c(C)c1CCC(=O)O)=C2.[Sn+4] [SnPP, tin protoporphyrin]
BILIRUBIN/CO REDUCTION (percent) (bilirubin levels [1]; ABO INCOMPATIBILITY-MAN, dose 0.5 umoles/kg): 21-32%
BILIRUBIN/CO REDUCTION (percent) (bilirubin levels [1]; BILIARY CIRRHOSIS-MAN, dose 0.25-2.0 umoles/kg): 7-23%
BILIRUBIN/CO REDUCTION (percent) (bilirubin levels [1]; GILBERT'S DISEASE-MAN, dose 0.5-1.8 umoles/kg): 29-43%
BILIRUBIN/CO REDUCTION (percent) (bilirubin levels [1]; NORMAL ADULT-MAN, dose 1-2 umoles/kg): 38-47%
CONCENTRATION OF SnPP IN ORGAN @ 24 HOURS, MICROSOMES ([2]; LIVER, rats, intravenous): 146-284 pm/mg. protein
CONCENTRATION OF SnPP IN ORGAN @ 24 HOURS, MICROSOMES ([2]; SPLEEN, rats, intravenous): 60 -90 pm/mg. protein
concentration of SnPP in the spleen relative to SnPP concentration in the liver ([2]; rat, in vivo, iv): one-fourth
concentration ([2]; read-out: CONCENTRATION OF SnPP IN ORGAN @ 24 HOURS, HOMOGENATE, SPLEEN, rats, intravenous, Mean ± SE for 3-4 rats): 6.5 ± 0.6 µM
HEME OXYGENASE ACTIVITY 24 HOURS AFTER TREATMENT (heme oxygenase [3]; KIDNEY, prior to treatment 1.8 ± 0.2): 0.6 ± 0.1 nm bilirubin/hr/mg. protein
HEME OXYGENASE ACTIVITY 24 HOURS AFTER TREATMENT (heme oxygenase [3]; LIVER, prior to treatment 2.7 ± 0,3): 0.3 ± 0.04 nm bilirubin/hr/mg. protein
HEME OXYGENASE ACTIVITY 24 HOURS AFTER TREATMENT (heme oxygenase [3]; SPLEEN, prior to treatment 12.4 ± 0.4): 2.3 ± 0.3 nm bilirubin/hr/mg. protein
inhibition of splenic heme oxygenase (heme oxygenase [3]; following intravenous administration): 50-75%
BILIRUBIN/CO REDUCTION (percent) (bilirubin levels [4]): 91%
Heme Oxygenase activity Liver (heme oxygenase [5]; 10 μm/kg IV, 16 hrs): 0.6 nm bilirubin/hr/mg. protein
Heme Oxygenase activity Spleen (heme oxygenase [5]; 10 μm/kg IV, 16 hrs): 3.6 nm bilirubin/hr/mg. protein
Heme Oxygenase activity Liver (heme oxygenase [5]; 10 μm/kg IV, 48 hrs): 1.0 nm bilirubin/hr/mg. protein
Heme Oxygenase activity Spleen (heme oxygenase [5]; 10 μm/kg IV, 48 hrs): 5.9 nm bilirubin/hr/mg. protein
Heme Oxygenase activity Liver (heme oxygenase [5]; 50 μm/kg IV, 16 hrs): 0.4 nm bilirubin/hr/mg. protein
Heme Oxygenase activity Spleen (heme oxygenase [5]; 50 μm/kg IV, 16 hrs): 5.3 nm bilirubin/hr/mg. protein
Heme Oxygenase activity Liver (heme oxygenase [5]; 50 μm/kg IV, 48 hrs): 0.5 nm bilirubin/hr/mg. protein
Heme Oxygenase activity Spleen (heme oxygenase [5]; 50 μm/kg IV, 48 hrs): 6.3 nm bilirubin/hr/mg. protein
BILIRUBIN/CO REDUCTION (percent) (bilirubin levels [6]; BILE DUCT LIGATED RAT, dose 100 umoles/kg): 62-70%
BILIRUBIN/CO REDUCTION (percent) (bilirubin levels [6]; NEONATAL GUNN RAT, dose 50 umoles/kg): 19%
BILIRUBIN/CO REDUCTION (percent) (bilirubin levels [6]; NEONATAL RAT/HEMATOMA, dose 65 umoles/kg): 25%
BILIRUBIN/CO REDUCTION (percent) (bilirubin levels [6]; NORMAL ADULT RAT, dose 10-50 umoles/kg): 24-30%

C=CC1=C(C)c2cc3[n-]c(cc4nc(cc5[n-]c(cc1n2)c(C)c5C=C)C(C)=C4CCC(=O)O)c(CCC(=O)O)c3C.[Zn+2] [ZnPP, zinc protoporphyrin]
efficacy as heme oxygenase inhibitor relative to SnPP (heme oxygenase [7]): relatively ineffective
BILIRUBIN/CO REDUCTION (percent) (bilirubin levels [6]; NORMAL ADULT RAT, dose 4-40 umoles/kg (ZnPP)): 20-30%

chromium protoporphyrin [CrPP]
toxicity [8]: exhibits some toxicity
BILIRUBIN/CO REDUCTION (percent) (bilirubin levels [6]; NEONATAL RAT, dose 10 umoles/kg (CrPP)): 32%
